The subject of one assay is B16F10 melanoma cells. Briefly: In vivo allograft tumor model. Also on record: species or system C57B1/6 mice. The procedure: (§1) The data reported for tumor volumes are expressed as mean±SEM. Statistical differences were determined by ANOVA and post test applied was Tukey-Kramer multiple comparison Test. For Tumor to body weight ratio post test applied was Dunnett multiple comparisons test.

The subject of the next assay is p21. Kind of assay: Western blot of tumor homogenates of C57B1/6 mice. The format is in vivo, mouse. The following applies: tumor of C57 mice, 100 μg. The procedure:
(§2) Prior to immunoblot analysis, tumor segments stored at −80° C. were thawed, washed, minced and homogenized in lysis buffer (120 mM NaCl, 1.0% Triton X 100, 20 mM Tris-HCl, pH 7.5, 10% glycerol, 2 mM EDTA, Protease inhibitor cocktail, Roche) using a Polytron homogenization device. Lysates were incubated at 4° C. for 30 min and centrifuged at 14000 r.p.m. in an Eppendorf micro centrifuge for 15 min. Proteins were isolated in solublised form. Protein concentrations were measured by Bradford assay (Bio-Rad protein assay kit) and stored at −80° C. For immunobloting, 60 μg of total protein from the tumor lysates were used Proteins were resolved in a 10% SDS-polyacrylamide gel, transferred to the immobilon-P […] membrane and blocked with 5% (wt/v) non fat dry milk powder (Sigma) in TBST buffer (10 mM Tris pH 7.6, 150 mM NaCl and 0.1% Tween-20) for three hours at room temperature and then incubated with primary antibodies p53, pp53, p21, Cyclin D1, CDK4 and c-Myc in TBST for 3 h and with actin for 1 hour at room temperature. The membrane was incubated further with the secondary antibody HRP-conjugated (BD Bioscience) at 1:10000 dilution for 1 h at room temperature. Following each antibody incubation, the membrane was washed thoroughly with TBST buffer 3 times. The protein bands were visualized using the enhanced chemiluminescence substrate reaction (Pierce) according to the manufacturer's instructions using X-OMAT AR5 film (Kodak)
On the technique in general: Immunoblotting shows a protein as a band on a membrane.

Another assay has as its system p53. Kind of assay: Western blot of tumor homogenates of C57B1/6 mice. In kind it is in vivo, mouse. Particulars: tumor of C57 mice, 100 μg, compared with control. As to the method: as §2
In another assay the test system is pp53. Briefly: Western blot of tumor homogenates of C57B1/6 mice. In kind it is in vivo, mouse. Particulars: tumor of C57 mice, 100 μg. As to the method: as §2
The test system of another assay is MCF-7 cells. Briefly: Cell cycle analysis by flow cytometry. In kind it is cell-based, human. The following applies: 24 h. The procedure: The cell cycle analysis of MCF-7, B16F10 MDA-MB-231 and PC3 cells was done by flow cytometry. […] Cells were harvested with trypsin (0.05%), 0.02% EDTA, 0.05% glucose and a single-cell suspension was prepared. Cells were washed and were pelleted by centrifugation (1000×g for 2 min) and fixed in 70% ethanol while vortexing and stored at 4° C. for 1 hour. Fixed cells were pelleted by centrifugation, to remove ethanol and washed with PBS. Cells were re-suspended in PBS containing 50 μg/ml propidium iodide, 0.1 g/L RNase and 1% BSA, incubated for 30 min at 37° C. in the dark, and analyzed with flow cytometry (FACS Vantage-BD Sciences, USA) equipped with an argon laser at 488 nm. The data was analyzed using Cell Quest software for determining the percent population in different phases of cell cycle.

The test system of assay [1] is cellular microtubule network. Kind of assay: Immunocytochemistry, microtubule network in MCF-7 cells. The format is cell-based, human. Particulars: paclitaxel 1-20 μM, AECHL-1 2-40 μM, 24 h, confocal microscopy. As to the method: Immunocytochemistry was performed as described previously. […] Cells were incubated with primary anti-p53 antibodies (1:100; Abcam) and anti-α-tubulin antibodies (1:10000; Sigma chemical Co.) for 1 hour at room temperature. After washing with PBS, cells were incubated with CY2-conjugated secondary antibodies (1:200; Chemicon, Germany) and Alexa-conjugated secondary antibodies (1:10000; Sigma, St. Louis, Mo.) for 45 minutes and nuclear staining was done with DAPI. Images were captured under confocal microscope.
The tumor suppressor p53 plays a critical role in preventing human cancer formation. It translocates into the nucleus and works as a transcription factor by upregulating cell cycle regulatory proteins and induces cell cycle arrest and/or programmed cell death (apoptosis) (11). […] After 24 h of incubation, the p53 translocation in the nucleus (green fluorescence) and microtubule network (red fluorescence) was visualized by confocal microscopy.

The subject of a further assay is MCF-7. Briefly: In vivo xenograft tumor model. The arrangement: species or system athymic nude mice. The procedure:
as §1

Each structure is given as a SMILES string.

As to `N.N.[Cl][Pt][Cl]` [Cisplatin, reference compound], the “tumor size reduced by” value in the assay on B16F10 melanoma cells (B16F10 allograft, 100 μg intra-tumor for 12 days, day 18) was 93.13±0.539%. In the assay on B16F10 melanoma cells (B16F10 allograft, 100 μg, day 24), the “tumor volume on day 24” value was “decreased”. In the assay on B16F10 melanoma cells (C57 mice, 100 μg), the “histological examination of tumor tissue” value is reported as “significant increase in necrotic nuclei with decreased tumor cell density”. The “expression of p21” value with p21 is reported as “increased p21 expression”. Further, in the assay on p53, the p53 protein expression result was “increasing expression”. For the same compound, the “phosphorylation of p53 (pp53)” value in the assay on pp53 was “did not show any change”.
For `CC(=O)O[C@H]1C(=O)[C@@]2(C)[C@H]([C@H](OC(=O)c3ccccc3)[C@]3(O)C[C@H](OC(=O)[C@H](O)[C@@H](NC(=O)c4ccccc4)c4ccccc4)C(C)=C1C3(C)C)[C@]1(OC(C)=O)CO[C@@H]1C[C@@H]2O` [Paclitaxel, reference compound], in the assay with MCF-7 cells (MCF-7, 1 μM), the “Phase of cell cycle (% of cells) G2/M” value is 72.55%, the “Phase of cell cycle (% of cells) S” value is reported as 18.65% and the “Phase of cell cycle (% of cells) Sub G0” value worked out at 3.45%. In the assay with MCF-7 cells (MCF-7, 2 μM), the “Phase of cell cycle (% of cells) G1” value came to 7.41%, the “Phase of cell cycle (% of cells) G2/M” value worked out at 63.71%, the “Phase of cell cycle (% of cells) S” value came to 22.89% and the “Phase of cell cycle (% of cells) Sub G0” value came out at 5.21%. Also, in the assay with MCF-7 cells (MCF-7, 5 μM), the “Phase of cell cycle (% of cells) G2/M” value amounted to 72.86%, the “Phase of cell cycle (% of cells) S” value was found to be 18.35% and the “Phase of cell cycle (% of cells) Sub G0” value came to 3.98%. For the same compound, in the assay on MCF-7 cells (MCF-7, 10 μM), the “Phase of cell cycle (% of cells) G2/M” value came out at 69.36%, the “Phase of cell cycle (% of cells) S” value is listed as 18.96% and the “Phase of cell cycle (% of cells) Sub G0” value is recorded as 3.47%. For the same compound, the “effect on microtubule network” value in assay [1] is “microtubule polymerization with an increase in the density of cellular microtubules”. In addition, the “tumor size reduced by” value in the assay on MCF-7 (MCF-7 xenograft, 20 μg/0.05 ml intra-tumor for 10 days) is recorded as 14.19±0.32%. In the assay on MCF-7 (nude mice, 20 μg), the “histological examination of tumor tissue” value is “lowered the tumor cell density”.

(Values after US8519163B2, “Anti-tumor activity of AECHL-1, novel triterpenoid isolated from Ailanthus excelsa in vitro and in vivo” (National Centre for Cell Science, priority 2008, dated 2013).)
